According to PubChem BioAssay (NCI):
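Five compound concentrations were applied to cells in 96-well plates for 48 hours; endpoints were derived by simple linear interpolation of the resulting dose-response curve. At the GI50, growth is halved. TGI denotes the concentration required for complete inhibition of growth.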

Experiments:
Assay in all cases: growth of human tumour cells (NCI), 48 h
[1] = test system: SK-OV-3 ovarian
[2] = test system: NCI/ADR-RES ovarian
[3] = test system: CCRF-CEM leukemia
[4] = test system: SF-295 CNS
[5] = test system: HOP-92 NSCLC
[6] = test system: PC-3 prostate
[7] = test system: MCF7 breast
[8] = test system: CAKI-1 renal
[9] = test system: KM12 colon
[10] = test system: OVCAR-3 ovarian
[11] = test system: UO-31 renal
[12] = test system: OVCAR-8 ovarian
[13] = test system: RXF 393 renal
[14] = test system: OVCAR-4 ovarian
[15] = test system: SN12C renal
[16] = test system: M14 melanoma
[17] = test system: SR leukemia
[18] = test system: HCT-15 colon
[19] = test system: MALME-3M melanoma
[20] = test system: NCI-H522 lung
[21] = test system: LOX IMVI melanoma
[22] = test system: HL-60(TB) leukemia
[23] = test system: BT-549 breast
[24] = test system: SW-620 colon
[25] = test system: K-562 leukemia
[26] = test system: SK-MEL-2 melanoma
[27] = test system: NCI-H226 lung
[28] = test system: HOP-62 NSCLC
[29] = test system: MDA-MB-231 breast
[30] = test system: IGROV1 ovarian
[31] = test system: COLO 205 colon
[32] = test system: HT29 colon
[33] = test system: HS 578T breast
[34] = test system: OVCAR-5 ovarian
[35] = test system: ACHN renal
[36] = test system: MOLT-4 leukemia
[37] = test system: UACC-257 melanoma
[38] = test system: U251 CNS
[39] = test system: MDA-MB-435
[40] = test system: SF-268 CNS
[41] = test system: SK-MEL-28 melanoma
[42] = test system: SNB-19 CNS
[43] = test system: HCC-2998 colon
[44] = test system: SF-539 CNS
[45] = test system: 786-0 renal
[46] = test system: UACC-62 melanoma
[47] = test system: SK-MEL-5 melanoma
[48] = test system: HCT-116 colon
[49] = test system: EKVX NSCLC
[50] = test system: NCI-H23 lung
[51] = test system: SNB-75 CNS
[52] = test system: A549 NSCLC
[53] = test system: RPMI-8226 leukemia
[54] = test system: A498 renal
[55] = test system: T-47D breast
[56] = test system: NCI-H460 lung
[57] = test system: DU-145 prostate
[58] = test system: TK-10 renal

SMILES: CC1=C(CN(O)C(N)=O)C2=C(C)C3(CC3)[C@](C)(O)C(=O)C2=C1
- GI50 [1]: 2620 nM
- TGI [1]: 9960 nM
- GI50 [2]: 2000 nM
- TGI [2]: 31200 nM
- GI50 [3]: 2220 nM
- TGI [3]: > 100000 nM
- GI50 [4]: 789 nM
- TGI [4]: > 100000 nM
- GI50 [5]: 1080 nM
- TGI [5]: 4210 nM
- GI50 [6]: 1460 nM
- TGI [6]: 11500 nM
- GI50 [7]: 366 nM
- TGI [7]: > 100000 nM
- GI50 [8]: 1910 nM
- TGI [8]: > 100000 nM
- GI50 [9]: 798 nM
- TGI [9]: 11500 nM
- GI50 [10]: 557 nM
- TGI [10]: 4150 nM
- GI50 [11]: 254 nM
- TGI [11]: 830 nM
- GI50 [12]: 634 nM
- TGI [12]: > 100000 nM
- GI50 [13]: 328 nM
- TGI [13]: 1190 nM
- GI50 [14]: 1790 nM
- TGI [14]: 9190 nM
- GI50 [15]: 2620 nM
- TGI [15]: > 100000 nM
- GI50 [16]: 819 nM
- TGI [16]: 2960 nM
- GI50 [17]: 896 nM
- TGI [17]: > 100000 nM
- GI50 [18]: 1290 nM
- TGI [18]: 24800 nM
- GI50 [19]: 1830 nM
- TGI [19]: 3880 nM
- GI50 [20]: 721 nM
- TGI [20]: 4600 nM
- GI50 [21]: 6380 nM
- TGI [21]: 36600 nM
- GI50 [22]: 952 nM
- TGI [22]: > 100000 nM
- GI50 [23]: 1180 nM
- TGI [23]: 3180 nM
- GI50 [24]: 1080 nM
- TGI [24]: > 100000 nM
- GI50 [25]: 1390 nM
- TGI [25]: > 100000 nM
- GI50 [26]: 2110 nM
- TGI [26]: 4850 nM
- GI50 [27]: 2030 nM
- TGI [27]: 6360 nM
- GI50 [28]: 1850 nM
- TGI [28]: 58700 nM
- GI50 [29]: 1110 nM
- TGI [29]: 5880 nM
- GI50 [30]: 2240 nM
- TGI [30]: 6380 nM
- GI50 [31]: 753 nM
- TGI [31]: 4580 nM
- GI50 [32]: 412 nM
- TGI [32]: 13900 nM
- GI50 [33]: 2630 nM
- TGI [33]: 9160 nM
- GI50 [34]: 374 nM
- TGI [34]: 5070 nM
- GI50 [35]: 1130 nM
- TGI [35]: 8690 nM
- GI50 [36]: 9020 nM
- TGI [36]: > 100000 nM
- GI50 [37]: 3020 nM
- TGI [37]: 31300 nM
- GI50 [38]: 3470 nM
- TGI [38]: > 100000 nM
- GI50 [39]: 382 nM
- TGI [39]: 1430 nM
- GI50 [40]: 1720 nM
- TGI [40]: > 100000 nM
- GI50 [41]: 732 nM
- TGI [41]: 3000 nM
- GI50 [42]: 2580 nM
- TGI [42]: > 100000 nM
- GI50 [43]: 219 nM
- TGI [43]: 540 nM
- GI50 [44]: 2080 nM
- TGI [44]: 6380 nM
- GI50 [45]: 2360 nM
- TGI [45]: 15500 nM
- GI50 [46]: 1290 nM
- TGI [46]: 3060 nM
- GI50 [47]: 5610 nM
- TGI [47]: 18500 nM
- GI50 [48]: 1390 nM
- GI50 [49]: 2340 nM
- TGI [49]: 6850 nM
- GI50 [50]: 2280 nM
- TGI [50]: 9830 nM
- GI50 [51]: 1280 nM
- TGI [51]: 3390 nM
- GI50 [52]: 3030 nM
- TGI [52]: > 100000 nM
- GI50 [53]: 348 nM
- TGI [53]: 2670 nM
- GI50 [54]: 1350 nM
- TGI [54]: 3250 nM
- GI50 [55]: 992 nM
- TGI [55]: > 100000 nM
- GI50 [56]: 2550 nM
- TGI [56]: > 100000 nM
- GI50 [57]: 452 nM
- TGI [57]: 26000 nM
- GI50 [58]: 2010 nM
- TGI [58]: 8020 nM
